Test results: US6979682B2, “Platelet-activating factor antagonist inhibition of angiogenesis and tumor growth induced by basic fibroblast” (Board of Supervisors of Louisiana State University and …, priority 2001, dated 2005)

Experiments:
[1] = visual observation of side effects in treated mice; type: in vivo, NCr athymic nude mice; conditions: mice treated at any dose
PC-3 cells = test: in vitro cell growth assay, [3H]thymidine incorporation, PC-3; type: cell-based, human
Description: The human prostatic carcinoma cell line PC-3 was grown in RPMI 1640 (Life Technologies, Grand Island, […].) supplemented with 10% fetal bovine serum (“FBS”, Life Technologies). The human cell line 201T was established from a poorly differentiated lung adenocarcinoma, as previously described using the method of J. M. Siegfried et al., “Secretion of autocrine growth factors by cultured lung tumors: effects on neoplastic lung epithelial cells,” Lung Cancer, vol. 4, pp. 205–209 (1988). See also J. P. Hamide et al., “Percutaneous implantation of non-small cell lung carcinoma: technique and observations,” Academ. Radiolo., vol. 4, pp. 629–633 (1997). The cell line was grown in a medium conditioned for 48 hours by the cell line A549 (ATCC CCL-185) containing 1% FBS (HyClone Laboratories, Logan, Utah) as previously described in J. M. Siegfried, “Culture of primary lung tumors using medium conditioned by a lung carcinoma cell line,” J. Cell. Biochem., vol. 41, pp. 91–95 (1988). This medium is referred to as CM+1% FBS.
PC-3 cells were exposed to 0, 0.1, 1, 2.5, 5, and 10 μM BN-50730 in RPMI medium supplemented with 10% FBS and [^3H]thymidine (Amersham Life Science, Arlington Heights, Ill.). […] PC-3 and 201T cells were also exposed to 10 μM BN-50730 for 24, 48, 72 and 144 hours, and cell growth assessed as above. […]

[2] = system: human umbilical vein endothelial cells (HUVEC); test: HUVEC proliferation, [3H]thymidine incorporation; type: cell-based
Description: Human umbilical vein endothelial cells (“HUVEC”) were propagated in one of three growth media depending on the experimental conditions. HUVEC were maintained in endothelial basal medium (“EBM-2”) (Clonetics, Walkersville, Md.) supplemented with 2% FBS (Clonetics). HUVEC were also grown in endothelial growth medium (“EGM”) (Clonetics), which contained 3 mg/ml (protein content) bovine brain extract, 10 ng/ml EGF ([…]), 1 μg/ml hydrocortisone, 2% FBS, gentamicin, and amphotericin-B. HUVEC were likewise grown in EGM-2, supplemented with VEGF ([…]), R^3-IGF-1 (long recombinant-3 insulin-like growth factor-1), ascorbic acid, heparin, 2% FBS, EGF, bFGF, gentamicin, and amphotericin-B.
Based on the above in vitro tumor data, the effect of BN-50730 on tumor growth is believed to result from inhibition of angiogenesis. To test this theory, the effect of BN-50730 on angiogenesis of HUVEC cells was measured using two growth media designed to induce rapid proliferation, EGM or EGM-2. HUVEC growth was measured by [^3H]thymidine incorporation into DNA.
As many tumors are known to produce angiogenesis-inducing factors, an experiment was conducted to test for increased proliferation of HUVEC cells exposed to 201T-conditioned medium. 201T cells were allowed to condition basal medium (EBM supplemented with 2% FBS) for 48 hr. […] EGM-2 is a medium containing the growth factors bFGF, VEGF, IGF-1, and EGF.
To characterize the inhibitory effects of BN-50730 on HUVEC proliferation, a series of growth assays was performed in which growth factors were either added or omitted singly from the growth medium in the presence or absence of BN-50730. The cells were grown in a medium supplemented with [^3H]thymidine, in either the presence or absence of BN-50730. Cells that proliferate will incorporate [^3H]thymidine into their DNA. In the first experiment, individual growth factors VEGF, IGF-1, bFGF, or EGF were added to EBM-2 supplemented with 2% FBS. […] This experiment supports the hypothesis that different cellular mechanisms use different peptide growth factors.
In a subsequent experiment, mixtures of the growth factors were analyzed, with only one growth factor absent from the medium, and each of the other three were present, in the presence or absence of 10 μM BN-50730. […] However, no reduction was seen when bFGF was absent.

bFGF = test: Western blot analysis of cell lysates for bFGF; type: cell-based, human; conditions: 5 μM, 18 hr prior to cell harvest
Description: HUVEC, PC-3, and 201T cells were grown to 75% confluency in the appropriate growth media. BN-50730 (5 μM) or vehicle (DMSO) was added to each cell line 18 hr prior to cell harvest. Cells were washed three times in phosphate-buffered saline (“PBS”) and scraped into Lemely buffer which lacked bromophenol blue and β-mercaptoethanol (0.1 M NaCl, 0.01M Tris-HCl (pH 7.6), 0.001 M EDTA, 1 μg/ml aprotinin, 100 μg/ml phenylmethylsulfonyl flouride, 2% SDS, and 10% glycerol). The cell suspension was boiled for 10 min and then immediately stored at −20° C. Protein levels were quantified using a Bio-Rad Protein Assay (Bio-Rad, Hercules, Calif.). Protein samples (20 μg) were separated through a 10–20% denaturing gradient acrylamide gel in Tris-glycine buffer and transferred to nitrocellulose (Bio-Rad) by electrophoretic blotting. […] Primary antibody was detected using alkaline phosphatase-conjugated goat anti-mouse IgG (Bio-Rad).
The methods were as in Example 1. Lysates were analyzed from HUVEC cells grown in the presence of DMSO (Lane 1) or 5 μM BN-50730 (Lane 2); PC-3 cells grown in the presence of DMSO (Lane 3) or 5 μM BN-50730 (Lane 4); and 201T cells grown in the presence of DMSO (Lane 5) or 5 μM BN-50730 (Lane 6). […]

COc1ccc(NC(=O)N2CCc3c(sc4c3C(c3ccccc3Cl)=NCc3nnc(C)n3-4)C2)cc1 [BN-50730, tetrahydro-4,7,8,10 methyl-1 (chloro-2 phenyl)-6 (methoxy-4 phenyl-carbomoyl)-9 pyrido [4′,3′-4,5] thieno [3,2-f] triazolo-1,2,4[4,3-α]diazepine-1,4]
side effects, visual observations [1]: no apparent side effects | PC-3 cell proliferation, time course (PC-3 cells; 10 μM at 1, 2, 3 or 6 days, p=0.556, F-test): no effect | PC-3 cell proliferation, concentration response (PC-3 cells; 0.01, 0.1, 1, 2.5, 5, 10 μM for 4 days, p=0.529 for 10 μM): not affected | HUVEC growth in EGM or EGM-2 medium ([2]; 5 μM, both growth conditions, p=0.001, Student's t-test): significantly reduced the growth of HUVEC | stimulation of HUVEC growth in 201T-conditioned medium or EGM-2 medium ([2]; 5 μM, either medium): inhibited | HUVEC growth in medium containing EGF as single growth factor ([2]; 10 μM, EBM-2 + 2% FBS + EGF): No difference | HUVEC growth in medium containing IGF-1 as single growth factor ([2]; 10 μM, EBM-2 + 2% FBS + IGF-1): No difference | HUVEC growth in medium containing VEGF as single growth factor ([2]; 10 μM, EBM-2 + 2% FBS + VEGF, p=0.036): small, but significant | HUVEC growth in medium containing bFGF as single growth factor ([2]; 10 μM, EBM-2 + 2% FBS + bFGF, p=0.0002): larger reduction | HUVEC growth in medium with bFGF absent ([2]; 10 μM, VEGF, IGF-1 and EGF present): no reduction | HUVEC growth in medium lacking only VEGF, IGF-1 or EGF ([2]; 10 μM, other three growth factors present): reduction in growth | production of bFGF by 201T and PC-3 cells (bFGF): does not inhibit the production of bFGF
